Measurements published in US12064407B2 (priority 2017, dated 2024).
Where two headings read alike, the source gives them in different places.

Assays:
CaV1.2 CCAT = details: 2.5 mM EGTA; 65 mM KCI; 100 μM glutamate; cited from earlier work
CTXLP = assay: Endogenous CTXLP in SVGA astrocytes treated with gambogic acid; type: cell-based, human; details: SVGA cells, gambogic acid 0.25 and 0.5 μM
Method: FIG. 57 depicts that endogenous levels of CTXLP in human astrocytes can be depleted in the presence of gambogic acid. Human astrocytic cell line SVGA were treated with increasing doses of gambogic acid in the low micromolar range (0.25 and 0.5 μM).

NOGO-A [1] = details: 24 hours, GA 0.1, 0.25, 1 and 2.5 μM
Method: The ERVK-expressing NCCIT teratocarcinoma cell line was grown in a monolayer in RMPI 1640 media supplemented with FetalGro. Cells were treated for 24 hours with increasing doses of gambogic acid (GA, 0.1, 0.25, 1 and 2.5 μM). Cells were collected, protein extracted, and western blot performed to measure the expression of ERVK CTXLP, CaV2.2 C-terminal calcium channel-associated transcriptional regulator (CaV2.2 CCAT) and NOGO-A, as compared to β-actin loading control.

ERVK CTXLP [2] = details: ReNcell CX neurospheres, 24 hours, 1 ng/ml TNFα; for TNFα-induced CTXLP expression in human neurospheres: 0.5 μM GA
Method: (§1) The ReNcell CX neuroprogenitor cell line was grown in suspension to produce human neurospheres (approximately 0.5 mm diameter). Neurospheres were treated for 24 hours in neurobasal media alone, or with or without 1 ng/ml TNFα and/or 0.5 μM gambogic acid (GA). Cells were collected, protein extracted, and western blot performed to measure the expression of soluble (standard lysis) and insoluble (RIPA lysis) proteins for ERVK CTXLP, CaV2.2 C-terminal calcium channel-associated transcriptional regulator (CaV2.2 CCAT) and NOGO-A, as compared to β-actin loading control.

NOGO-A [3] = details: ReNcell CX neurospheres, 24 hours, 1 ng/ml TNFα; for TNFα-induced NOGO-A expression in human neurospheres: 0.5 μM GA
Method: as §1

[4] = test system: interferon response elements (ISREs) within the ERVK promoter (5′ LTR); type: binding, human
ERVK CTXLP [5] = details: ReNcell-derived neurons, 24 hours, n=1
Method: ReNcell-derived neurons were treated with increasing doses of pro-inflammatory cytokines TNFα or LIGHT for 24 hours.

NOGO-A [6] = biological target: T1, NOGO-A (Homo sapiens, UniProt Q9NQC3); details: patients with ALS, intravenous infusions; cited from earlier work
T1 construct: host or cells: ALS patients (clinical trials cited from the literature)
T1 sequence (Q9NQC3 1-1192): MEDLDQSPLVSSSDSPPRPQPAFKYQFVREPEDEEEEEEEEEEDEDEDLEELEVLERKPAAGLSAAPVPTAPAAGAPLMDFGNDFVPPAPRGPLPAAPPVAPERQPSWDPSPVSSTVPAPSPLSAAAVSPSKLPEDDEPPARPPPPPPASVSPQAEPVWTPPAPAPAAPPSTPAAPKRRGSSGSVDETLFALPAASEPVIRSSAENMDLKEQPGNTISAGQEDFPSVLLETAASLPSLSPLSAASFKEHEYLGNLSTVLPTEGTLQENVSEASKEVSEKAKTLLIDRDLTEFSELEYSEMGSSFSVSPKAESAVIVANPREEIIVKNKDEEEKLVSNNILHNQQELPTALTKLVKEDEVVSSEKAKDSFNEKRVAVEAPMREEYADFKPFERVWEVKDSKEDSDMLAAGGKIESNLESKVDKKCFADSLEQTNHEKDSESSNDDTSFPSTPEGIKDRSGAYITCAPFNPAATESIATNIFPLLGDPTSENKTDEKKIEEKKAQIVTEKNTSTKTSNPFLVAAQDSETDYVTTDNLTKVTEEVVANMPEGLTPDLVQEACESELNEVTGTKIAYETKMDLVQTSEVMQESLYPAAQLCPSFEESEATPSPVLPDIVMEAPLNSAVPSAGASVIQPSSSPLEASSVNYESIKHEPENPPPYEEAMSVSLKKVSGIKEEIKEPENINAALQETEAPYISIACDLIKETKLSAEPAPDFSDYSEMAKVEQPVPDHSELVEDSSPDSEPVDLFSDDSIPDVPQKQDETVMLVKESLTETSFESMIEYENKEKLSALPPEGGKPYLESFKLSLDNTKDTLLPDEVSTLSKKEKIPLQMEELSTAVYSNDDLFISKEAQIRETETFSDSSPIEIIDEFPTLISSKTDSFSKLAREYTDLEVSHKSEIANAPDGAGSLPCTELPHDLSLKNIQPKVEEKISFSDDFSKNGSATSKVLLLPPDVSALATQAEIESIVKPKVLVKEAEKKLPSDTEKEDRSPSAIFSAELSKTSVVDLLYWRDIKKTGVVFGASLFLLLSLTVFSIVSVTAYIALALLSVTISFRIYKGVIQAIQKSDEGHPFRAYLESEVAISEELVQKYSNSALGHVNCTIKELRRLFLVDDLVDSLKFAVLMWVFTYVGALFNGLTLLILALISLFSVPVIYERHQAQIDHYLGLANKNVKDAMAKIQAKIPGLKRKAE

[7] = test system: CaV2.2 calcium channel-associated transcription regulator (CCAT); type: cell-based, human
NF-κB p65 [8] = type: cell-based
IRF7 = type: cell-based
NF-κB p65 [9] = type: cell-based; remark: listed apart in the source
[10] = test system: NF-κB p65 and p50 proteins; type: cell-based, human

## O=C(O)CN(CCOCCOCCN(CC(=O)O)CC(=O)O)CC(=O)O [EGTA]
CaV1.2 CCAT
  CaV1.2 CCAT nuclear localization / nuclear CCAT levels in neurons: promote

## CC(C)=CCC[C@]1(C)C=Cc2c(O)c3c(c(CC=C(C)C)c2O1)O[C@]12C(=C[C@@H]4C[C@H]1C(C)(C)O[C@@]2(C/C=C(/C)C(=O)O)C4=O)C3=O [Gambogic acid, gambogic acid]
CTXLP
  endogenous levels of CTXLP in human astrocytes: depleted
NOGO-A [1]
  NOGO-A expression in NCCIT cells: potent inhibitor of Nogo-A
NOGO-A [1]; listed as GA
  NOGO-A expression in NCCIT cells: dose-dependently reduces
ERVK CTXLP [2]
  TNFα-induced CTXLP expression in human neurospheres: blocks
ERVK CTXLP [2]; listed as gambogic acid
  TNFα-induced CTXLP expression in human neurospheres: reduce inducible CTXLP expression
NOGO-A [3]; listed as GA
  TNFα-induced NOGO-A expression in human neurospheres: blocked
NOGO-A [3]; listed as gambogic acid
  TNFα-induced NOGO-A expression in human neurospheres: ameliorate

## [Cl-].[K+] [KCI]
CaV1.2 CCAT
  CaV1.2 CCAT nuclear localization / nuclear CCAT levels in neurons: decreased nuclear CCAT levels

## [Ca+2].[Cl-].[Cl-] [calcium chloride]
SVGA cells
  caspase-3 expression in CTXLP-treated SVGA cells in the presence of excess calcium: blocked

## N[C@@H](CCC(=O)O)C(=O)O [glutamate]
CaV1.2 CCAT
  CaV1.2 CCAT nuclear localization / nuclear CCAT levels in neurons: decreased nuclear CCAT levels

## TNFα
[4]
  CTXLP chromatin binding on cytokine stimulation: Notable increase
ERVK CTXLP [2]
  CTXLP expression in neurospheres on TNFα: enhances
NOGO-A [3]
  NOGO-A expression in neurospheres on TNFα: enhances
ERVK CTXLP [5]
  cytokine dose giving optimal enhancement of CTXLP expression (90 kDa form): 1 ng/mL

B1: LIGHT: lymphotoxin-like inducible member of the TNF superfamily protein, pro-inflammatory cytokine (protein, UniProt O43557 83-240, looked up)
Tumor necrosis factor ligand …: LIQERRSHEVNPAAHLTGANSSLTGSGGPLLWETQLGLAFLRGLSYHDGALVVTKAGYYYIYSKVQLGGVGCPLGLASTITHGLYKRTPRYPEELELLVSQQSPCGRATSSSRVWWDSSFLGGVVHLEAGEKVVVRVLDERLVRLRDGTRSYFGAFMV
ERVK CTXLP [5]
  cytokine dose giving optimal enhancement of CTXLP expression (90 kDa form): 10 ng/mL

B2: Ozanezumab: human anti-Nogo-A antibody from GlaxoSmithKline (antibody, chains of the INN, looked up, V domains shown)
VH: QVQLVQSGAEVKKPGASVKVSCKASGYTFTSYWMHWVRQAPGQGLEWIGNINPSNGGTNYNEKFKSKATMTRDTSTSTAYMELSSLRSEDTAVYYCELMQGYWGQGTLVTVSS
VL: DIVMTQSPLSNPVTLGQPVSISCRSSKSLLYKDGKTYLNWFLQRPGQSPQLLIYLMSTRASGVPDRFSGGGSGTDFTLKISRVEAEDVGVYYCQQLVEYPLTFGQGTKLEIK
NOGO-A [6]
  outcome of Phase II clinical ALS trials: negative results

B3: ERVK SU: ERVK envelope surface unit protein devoid of the CTXLP domain (SEQ ID NO: 3) (protein)
chain: MNPSEMQRKAPPRRRRHRNRAPLTHKMNKMVTSEEQMKLPSTKKAEPPTWAQLKKLTQLATKYLENTKVTQTPESMLLAALMIVSMVVSLPMPAGAAAANYTYWAYVPFPPLIRAVTWMDNPIEIYVNDSVWVPGPTDDCCPAKPEEEGMMINISIGYRYPPICLGRAPGCLMPAVQNWLVEVPTVSPISRFTYHMVSGMSLRPRVNYLQDFSYQRSLKFRPKGKPCPKEIPKESKNTEVLVWEECVANSAVILQNNEFGTLIDWAPRGQFYHNCSGQTQSCPSAQVSPAVDSDLTESLDKHKHKKLQSFYPWEWGEKGISTARPKIISPVSGPEHPELWRLTVASHHIRIWSGNQTLETRDRKPFYTIDLNSSLTVPLQSCVKPPYMLVVGNIVIKPDSQTITCENCRLLTCIDSTFNWQHRILLVRAREGVWIPVSMDRPWEASPSVHILTEVLKGVLNRSKR
modifications: Endogenous retrovirus K (from homo sapiens)
[7]
  CaV2.2 CCAT (75 kDa) expression in SVGA cells: not
NF-κB p65 [8]
  mRNA expression of NF-κB p65: marked increase
IRF7
  mRNA expression of IRF7: neither protein was able to trigger an upregulation
NF-κB p65 [9]
  NF-κB p65 protein expression: unable
[10]
  NF-κB p65 and p50 protein expression: not
SVGA cells
  continued replication / cell density at later time points: able to continue to replicate
